# Test results published in ChEMBL document CHEMBL5233254, “Anticancer fungal natural products: Mechanisms of action and biosynthesis” (Eur J Med Chem, 2020).
# How the values were obtained:
# [1] = biological target: T1, Heat shock factor protein 1 (Homo sapiens, UniProt Q00613); test: Induction of HSF-1 (unknown origin) degradation assessed as ATPase activity by colorimetric assay
# T1 sequence (Q00613 whole entry): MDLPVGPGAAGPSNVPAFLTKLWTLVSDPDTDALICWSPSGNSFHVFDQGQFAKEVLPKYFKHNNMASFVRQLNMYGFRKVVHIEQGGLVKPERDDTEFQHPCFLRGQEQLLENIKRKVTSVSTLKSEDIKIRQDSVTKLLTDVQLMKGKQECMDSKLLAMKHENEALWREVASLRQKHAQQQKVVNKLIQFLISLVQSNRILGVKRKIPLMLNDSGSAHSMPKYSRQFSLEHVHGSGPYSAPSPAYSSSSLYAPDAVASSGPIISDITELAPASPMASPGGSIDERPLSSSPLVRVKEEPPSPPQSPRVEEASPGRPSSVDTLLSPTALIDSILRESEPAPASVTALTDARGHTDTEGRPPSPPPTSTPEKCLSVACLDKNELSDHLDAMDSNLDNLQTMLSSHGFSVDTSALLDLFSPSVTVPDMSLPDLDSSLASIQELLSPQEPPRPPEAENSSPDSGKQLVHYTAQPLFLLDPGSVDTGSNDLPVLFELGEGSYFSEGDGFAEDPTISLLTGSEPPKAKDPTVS
# [2] = Inhibition of V-ATPase (unknown origin); design: species or system Homo sapiens
# [3] = Anti-tumor activity against mouse lewis lung carcinoma cells allografted in mouse assessed as reduction in tumor growth at 2 mg/kg, po; type: functional; design: scale not given: the % may be the effect or the level left
# Tubulin = test: Binding affinity to tubulin (unknown origin) assessed as dissociation constant; type: protein-complex assay, Homo sapiens
# HeLa = test: Antimitotic activity against human HeLa cells; type: functional, cell-based
# Tubulin (Homo sapiens) = Tubulin (Homo sapiens) (UniProt P68371+Q9H4B7+P0DPH7+P68366+Q13509+Q71U36+P04350+Q3ZCM7+P07437+P68363+Q9BQE3+Q6PEY2+Q13885+Q9BVA1+Q9BUF5); test: Inhibition of microtubule polymerization in human HeLa cells at 20 uM relative to control; type: cell-based
# [4] = Inhibition of PI3K (unknown origin); design: species or system Homo sapiens
# MCF7 = test: Cytotoxicity against human MCF7 cells; type: functional, cell-based
# 14-3-3 eta/c-RAF = 14-3-3 eta/c-RAF (Homo sapiens, UniProt P04049+Q04917); test: Stabilization of 14-3-3 eta (unknown origin)/ c-Raf (unknown origin); type: protein-complex assay
# Sequence of 14-3-3 eta/c-RAF (P04049 whole entry): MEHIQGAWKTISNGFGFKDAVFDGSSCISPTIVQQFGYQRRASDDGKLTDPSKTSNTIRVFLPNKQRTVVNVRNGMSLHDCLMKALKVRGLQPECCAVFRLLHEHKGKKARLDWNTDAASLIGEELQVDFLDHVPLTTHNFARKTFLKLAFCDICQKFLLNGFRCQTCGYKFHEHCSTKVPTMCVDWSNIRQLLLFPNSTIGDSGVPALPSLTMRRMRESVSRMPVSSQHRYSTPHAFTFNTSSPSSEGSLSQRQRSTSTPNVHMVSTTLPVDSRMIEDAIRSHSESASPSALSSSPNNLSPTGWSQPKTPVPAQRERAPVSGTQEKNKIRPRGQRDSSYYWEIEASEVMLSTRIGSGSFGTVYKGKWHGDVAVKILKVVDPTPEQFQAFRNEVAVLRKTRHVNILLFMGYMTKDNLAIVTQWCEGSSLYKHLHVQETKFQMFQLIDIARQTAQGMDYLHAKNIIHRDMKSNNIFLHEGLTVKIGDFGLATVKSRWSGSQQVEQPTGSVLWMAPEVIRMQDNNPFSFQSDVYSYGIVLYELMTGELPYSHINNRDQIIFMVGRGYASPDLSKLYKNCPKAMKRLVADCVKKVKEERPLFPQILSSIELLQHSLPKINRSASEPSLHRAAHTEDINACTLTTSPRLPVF
# Sequence of 14-3-3 eta/c-RAF (Q04917 whole entry): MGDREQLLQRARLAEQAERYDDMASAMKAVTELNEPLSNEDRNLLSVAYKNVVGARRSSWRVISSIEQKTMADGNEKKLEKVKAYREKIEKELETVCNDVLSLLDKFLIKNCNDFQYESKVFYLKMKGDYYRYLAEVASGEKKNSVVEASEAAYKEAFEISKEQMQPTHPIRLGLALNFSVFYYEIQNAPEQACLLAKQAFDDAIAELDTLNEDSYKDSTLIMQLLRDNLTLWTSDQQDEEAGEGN
# [5] = Cytotoxicity against human endothelial cells; type: toxicity, cell-based; settings: endothelial cell
# [6] = Inhibition of full-length human MEK
smiles,measurement,setting,value
C[C@H]1CCC/C=C/C(=O)c2c(O)cc(O)cc2CC(=O)O1 [DEHYDROCURVULARIN],IC50,[1],15.3 µM
CC[C@@H](C)[C@@H]1NC(=O)[C@H]2CCCN2C(=O)[C@@H](CC(C)C)OC(=O)CCNC(=O)[C@H](C)N(C)C(=O)[C@H](C(C)C)N(C)C1=O,IC50,[2],5.4 µM
C[C@H]1C/C=C/[C@H]2[C@@H]3O[C@]3(C)[C@@H](C)[C@H]3[C@H](Cc4ccccc4)NC(=O)[C@]32OC(=O)O/C=C/[C@@](C)(O)C1=O [CYTOCHALASIN E],Activity,[3],72%
COC1=CC(=O)C[C@@H](C)[C@]12Oc1c(Cl)c(OC)cc(OC)c1C2=O [GRISEOFULVIN],Kd,Tubulin,300 µM
same,IC50,HeLa,25 µM
same,inhibition,Tubulin (Homo sapiens),75%
C[C@@]12c3ccc4c(c3C(=O)c3occ(c31)C(=O)C[C@H]2O)CCC4=O [DEMETHOXYVIRIDIN],IC50,[4],6.6 nM
C[C@]12CCC3=C(C(=O)c4occ5c4[C@]3(C)CCC5=O)[C@@H]1CC[C@@H]2O,IC50,MCF7,15 µM
COC[C@H]1O[C@@H](O[C@@H]2C3=C(C(C)C)CC[C@]3(C)/C=C3\[C@@H](CC[C@]3(O)COC)[C@@H](C)[C@H]2O)[C@H](O)[C@H]2OC3O[C@]21O[C@@]3(C)[C@@H]1CO1,EC50,14-3-3 eta/c-RAF,60 µM
CO[C@@H]1[C@H](OC(=O)NC(=O)CCl)CC[C@]2(CO2)[C@H]1[C@@]1(C)O[C@@H]1CC=C(C)C [O-CHLOROACETYLCARBAMOYLFUMAGILLOL],IC50,[5],10 pg/mL
COc1cc(O)c2c(c1)CCC[C@H](O)[C@H](O)C(=O)/C=C\C[C@H](C)OC2=O,IC50,[6],4 µM
